pIC50: −log10 of the molar value.
Target: T1, human MC1R (hMC1R) (Homo sapiens, UniProt Q01726)
T1 construct: purchased Perkin Elmer ES-195-M400UA
Test: Human MC1R radioligand binding assay (displacement of 125I-labeled NDP-MSH, Perkin Elmer hMC1R membranes)
Conditions: displacement of [125I]NDP-MSH, compounds tested as trifluoroacetate or hydrochloride salts or free base
Method: Assessments of compound binding to human MC1R (hMC1R)) by displacement of an ^125I-labeled NDP-MSH receptor ligand peptide were performed essentially as described in the data sheets produced by Perkin Elmer to accompany their frozen hMC1R membranes (Perkin Elmer catalog number ES-195-M400UA).
[^125I] NDP-MSH: radiolabeled in house and purified by HPLC:
Na ^125I (0.5 mCi, 17.4 Ci/mg) was added to 50 μL sodium phosphate (50 mM, pH 7.4) in an eppendorf tube precoated with IODOGEN. After incubation for 10 mins the phosphate buffer containing the iodine was added to NDP-MSH (10 ul at 1 mg/mL) in a separate eppendorf tube. This was incubated for a further 10 mins. The iodinated NDP-MSH was purified by HPLC on a Zorbax SB 300 column using solvent A: 0.05% TFA and solvent B: 90% acetonitrile 0.045% TFA with a linear gradient, 0-67% B over 60 mins.
Perkin Elmer frozen hMC1 membranes: catalog number ES-195-M400UA, 0.4 mL/vial; 400 microassays/vial, 0.78 mg/mL protein concentration
Vials of frozen membranes were thawed rapidly immediately before use, diluted with binding buffer and vortexed. Resuspended membranes were kept on ice until they were added to the wells of the plate.
Assays were performed in 96 well polypropylene plates. […] This was incubated for 1 hr at 37° C.

T1 sequence (Q01726 whole entry): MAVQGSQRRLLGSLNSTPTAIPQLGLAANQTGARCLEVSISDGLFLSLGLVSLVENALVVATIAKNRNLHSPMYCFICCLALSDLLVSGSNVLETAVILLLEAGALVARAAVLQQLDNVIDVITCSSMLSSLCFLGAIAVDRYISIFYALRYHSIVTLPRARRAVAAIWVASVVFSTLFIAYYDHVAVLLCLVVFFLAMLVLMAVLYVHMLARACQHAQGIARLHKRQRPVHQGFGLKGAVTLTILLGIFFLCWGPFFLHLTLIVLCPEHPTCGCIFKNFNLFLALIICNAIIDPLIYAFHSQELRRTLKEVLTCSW

Structure (SMILES)	pIC50
CC[C@H](CN1CC[C@@H](CNC(=O)c2ccc3cc(Cl)ccc3c2)N[C@@H](CCCN2CCCCC2)C1=O)c1ccccc1 [Compound 163, 6-chloro-N-(((3S,5S)-2-oxo-1-((S)-2-phenylbutyl)-3-(3-(piperidin-1-yl)propyl)-1,4-diazepan-5-yl)methyl)-2-naphthamide]	> 5.00
CC[C@H](CN1CC[C@@H](CNC(=O)c2ccc(-c3ccccc3)cc2)N[C@@H](CCN2CCCCC2)C1=O)c1ccccc1 [Compound 177, N-(((3S,5S)-2-oxo-1-((S)-2-phenylbutyl)-3-(2-(piperidin-1-yl)ethyl)-1,4-diazepan-5-yl)methyl)biphenyl-4-carboxamide]	> 5.00
N=C(N)NCCC[C@@H]1N[C@H](CNC(=O)c2cccc(Oc3ccccc3)c2)CCN(CC(c2ccccc2)c2ccccc2)C1=O [Compound 111, N-(((3S,5S)-1-(2,2-diphenylethyl)-3-(b3-guanidinopropyl)-2-oxo-1,4-diazepan-5-yl)methyl)-3-phenoxybenzamide]	> 5.00
NCCC[C@@H]1N[C@H](CNC(=O)c2ccc(Cl)c(Cl)c2)CCN(CC(c2ccccc2)c2ccccc2)C1=O [Compound 123]	> 5.00
NCCC[C@@H]1N[C@H](CNC(=O)c2cc(-c3ccc(Cl)cc3)on2)CCN(CC(c2ccccc2)c2ccccc2)C1=O [Compound 129]	> 5.00
CCC(CC)CN1CC[C@@H](CNC(=O)/C=C/c2ccc(Cl)cc2)N[C@@H](CCN)C1=O [Compound 146, (E)-N-(((3S,5S)-3-(2-aminoethyl)-1-(2-ethylbutyl)-2-oxo-1,4-diazepan-5-yl)methyl)-3-(4-chlorophenyl)acrylamide]	> 5.00
O=C(NC[C@@H]1CCN(CC(c2ccccc2)c2ccccc2)C(=O)[C@H](CCN2CCCCC2)N1)c1ccc(Cl)c(Cl)c1 [Compound 137, 3,4-dichloro-N-(((3S,5S)-1-(2,2-diphenylethyl)-2-oxo-3-(2-(piperidin-1-yl)ethyl)-1,4-diazepan-5-yl)methyl)benzamide]	> 5.00
NCCC[C@@H]1N[C@H](CNC(=O)c2ccc3cc(F)ccc3c2)CCN(CC(c2ccccc2)c2ccccc2)C1=O [Compound 122, N-(((3S,5S)-3-(3-aminopropyl)-1-(2,2-diphenylethyl)-2-oxo-1,4-diazepan-5-yl)methyl)-6-fluoro-2-naphthamide]	> 5.00
CC[C@H](CN1CC[C@@H](CNC(=O)c2ccccc2-c2ccc(Cl)cc2)N[C@@H](CCN2CCCCC2)C1=O)c1ccccc1 [Compound 179, 4′-chloro-N-(((3S,5S)-2-oxo-1-((S)-2-phenylbutyl)-3-(2-(piperidin-1-yl)ethyl)-1,4-diazepan-5-yl)methyl)biphenyl-2-carboxamide]	> 5.00
N=C(N)NCCC[C@@H]1N[C@H](CNC(=O)c2ccc3ccccc3c2)CCN(Cc2cc(Cl)cc(Cl)c2)C1=O [Compound 100, N-(((3S,5S)-1-(3,5-dichlorobenzyl)-3-(3-guanidinopropyl)-2-oxo-1,4-diazepan-5-yl)methyl)-2-naphthamide]	> 5.00
N=C(N)NCCC[C@@H]1N[C@H](CNC(=O)c2ccc3ccccc3c2)CCN(CC(c2ccccc2)c2ccccc2)C1=O [Compound 107, N-(((3S,5S)-1-(2,2-diphenylethyl)-3-(3-guanidinopropyl)-2-oxo-1,4-diazepan-5-yl)methyl)-2-naphthamide]	> 5.00
CC[C@H](CN1CC[C@H](CNC(=O)c2ccc3cc(Cl)ccc3c2)N[C@H](CC(C)(C)N2CCCCC2)C1=O)c1ccccc1 [Compound 172, 6-chloro-N-(((3R,5R)-3-(2-methyl-2-(piperidin-1-yl)propyl)-2-oxo-1-((S)-2-phenylbutyl)-1,4-diazepan-5-yl)methyl)-2-naphthamide]	> 5.00
O=C(NC[C@@H]1CCN(CC(c2ccccc2)c2ccccc2)C(=O)[C@H](CCCNC2CCCCC2)N1)c1ccc2ccccc2c1 [Compound 124, N-(((3S,5S)-3-(3-(cyclohexylamino)propyl)-1-(2,2-diphenylethyl)-2-oxo-1,4-diazepan-5-yl)methyl)-2-naphthamide]	> 5.00
CC1CC(C)CC(CN2CC[C@@H](CNC(=O)c3ccc4ccccc4c3)N[C@@H](CCCNC(=N)N)C2=O)C1 (stereo partly drawn) [Compound 139, N-(((3S,5S)-1-((3,5-dimethylcyclohexyl)methyl)-3-(3-guanidinopropyl)-2-oxo-1,4-diazepan-5-yl)methyl)-2-naphthamide]	> 5.00
O=C(/C=C/c1ccc(Cl)cc1)NC[C@@H]1CCN(Cc2cc(Cl)cc(Cl)c2)C(=O)[C@H](CN2CCCCC2)N1 [Compound 152, (E)-3-(4-chlorophenyl)-N-(((3S,5S)-1-(3,5-dichlorobenzyl)-2-oxo-3-(piperidin-1-ylmethyl)-1,4-diazepan-5-yl)methyl)acrylamide]	> 5.00
N=C(N)NCCC[C@@H]1N[C@H](CNC(=O)c2ccc3ccccc3c2)CCN(CC2c3ccccc3-c3ccccc32)C1=O [Compound 126, N-(((3S,5S)-1-((9H-fluoren-9-yl)methyl)-3-(3-guanidinopropyl)-2-oxo-1,4-diazepan-5-yl)methyl)-2-naphthamide]	> 5.00
O=C(/C=C/c1ccc(Cl)cc1)NC[C@@H]1CCN(CC(c2ccccc2)c2ccccc2)C(=O)[C@H](CCCN2CCCCC2)N1 [Compound 132, (E)-3-(4-chlorophenyl)-N-(((3S,5S)-1-(2,2-diphenylethyl)-2-oxo-3-(3-(piperidin-1-yl)propyl)-1,4-diazepan-5-yl)methyl)acrylamide]	> 5.00
CN(C[C@@H]1CCN(CC(c2ccccc2)c2ccccc2)C(=O)[C@H](CCCN)N1)C(=O)c1ccc2cc(Br)ccc2c1 [Compound 104, N-(((3S,5S)-3-(3-aminopropyl)-1-(2,2-diphenylethyl)-2-oxo-1,4-diazepan-5-yl)methyl)-6-bromo-N-methyl-2-naphthamide]	> 5.00
O=C(NC[C@@H]1CCN(CC(c2ccccc2)c2ccccc2)C(=O)[C@H](CCN2CCCCC2)N1)c1ccc2cc(Cl)ccc2c1 [Compound 154, 6-chloro-N-(((3S,5S)-1-(2,2-diphenylethyl)-2-oxo-3-(2-(piperidin-1-yl)ethyl)-1,4-diazepan-5-yl)methyl)-2-naphthamide]	> 5.00
CNC(=O)[C@H](Cc1ccc2ccccc2c1)N1CC[C@H](CNC(=O)[C@@H](N)Cc2ccc(F)cc2)N[C@@H](CCCNC(=N)N)C1=O [Compound 166, (S)-2-amino-3-(4-fluorophenyl)-N-(((3S,5R)-3-(3-guanidinopropyl)-1-((S)-1-(methylamino)-3-(naphthalen-2-yl)-1-oxopropan-2-yl)-2-oxo-1,4-diazepan-5-yl)methyl)propanamide]	> 5.00
CNC(=O)[C@H](Cc1ccc2ccccc2c1)N1CC[C@H](CNCc2ccc(F)cc2)N[C@@H](CCCNC(=N)N)C1=O [Compound 143, (S)-2-((3S,5R)-5-((4-fluorobenzylamino)methyl)-3-(3-guanidinopropyl)-2-oxo-1,4-diazepan-1-yl)-N-methyl-3-(naphthalen-2-yl)propanamide]	> 5.00
NCC[C@@H]1N[C@H](CNC(=O)/C=C/c2ccc(Cl)cc2)CCN(Cc2cc(Cl)cc(Cl)c2)C1=O [Compound 141, (E)-N-(((3S,5S)-3-(2-aminoethyl)-1-(3,5-dichlorobenzyl)-2-oxo-1,4-diazepan-5-yl)methyl)-3-(4-chlorophenyl)acrylamide]	> 5.00
O=C(/C=C/c1ccc(Cl)cc1)NC[C@@H]1CCN(Cc2cc(Cl)cc(Cl)c2)C(=O)[C@H](CCN2CCCCC2)N1 [Compound 145, (E)-3-(4-chlorophenyl)-N-(((3S,5S)-1-(3,5-dichlorobenzyl)-2-oxo-3-(2-(piperidin-1-yl)ethyl)-1,4-diazepan-5-yl)methyl)acrylamide]	> 5.00
NCC[C@@H]1N[C@H](CNC(=O)c2ccc(Cl)c(Cl)c2)CCN(CC(c2ccccc2)c2ccccc2)C1=O [Compound 135, N-(((3S,5S)-3-(2-aminoethyl)-1-(2,2-diphenylethyl)-2-oxo-1,4-diazepan-5-yl)methyl)-3,4-dichlorobenzamide]	> 5.00
CCC(CN1CC[C@@H](CNC(=O)/C=C/c2ccc(Cl)cc2)N[C@@H](CCN)C1=O)c1ccccc1 (stereo partly drawn) [Compound 153, (E)-N-(((3S,5S)-3-(2-aminoethyl)-2-oxo-1-(2-phenylbutyl)-1,4-diazepan-5-yl)methyl)-3-(4-chlorophenyl)acrylamide]	> 5.00
